Assay results reported in PMC7897990, “TriTOX: A novel Trichomonas vaginalis assay platform for high-throughput screening of compound libraries” (International Journal for Parasitology: Drugs and Drug …, 2021).
Read-outs that look alike come from different tables or passages of the source. Positions of bridges follow the written chain, without caps; N, C: chain ends. Non-standard residues stand in square brackets, D forms with d. Residues, ends and D or L forms follow the SMILES beside them. *: point of attachment. d(aThr) = C[C@@H](O)[C@@H](N)C(=O)O; X1 = CCCCCCCCCCCC(O)CC(=O)*

System: Trichomonas vaginalis G3 trophozoites
Conditions: for T.vaginalis_Absorbance_Rep1: replicate 1, raw absorbance; for T.vaginalis_Absorbance_Rep2: replicate 2, raw absorbance
[1] = HTS, parasite screen at 1 µg/mL, replicate 1
[2] = HTS, parasite screen at 1 µg/mL
[3] = HTS, parasite screen at 1 µg/mL, replicate 2
[4] = HTS replicate 1, parasite screen 1 µg/mL
[5] = HTS replicate 2, parasite screen 1 µg/mL

Compound	T.vaginalis_%inb_Rep1 [1] [%]	T.vaginalis_Absorbance_Rep1 [2]	T.vaginalis_%inb_Rep2 [3] [%]	T.vaginalis_Absorbance_Rep2 [2]	T.vaginalis_%inb_Rep1 [4] [%]	T.vaginalis_%inb_Rep2 [5] [%]	also measured
C/C=C(/C)c1cc(O)c(C)c2c1Oc1c(C)c(O)cc(/C(C)=C\C)c1C(=O)O2 [Folipastatin]	12.58	0.95	14.11	0.855			
CCC/C=C/C=C/C1C[C@@H](O)[C@@H](O)C(=O)[C@H]1C=O (some centres unmarked) [Frequentin]	13.62	0.962	7.74	0.727			
COC1=C(OC)C(=O)C(C)=CC1=O [Fumigatin methylether]	13.18	0.962	9.62	0.785			
COC1=C(O)c2c(O)cc(C)c3c(O)cc(O)c(c23)C1=O [Funalenone]	14.50	0.988	12.96	0.837			
CCCCCCC(C)C/C(C)=C\C(/C=C(C)/C=C/C(O)C(C)(C)c1cc(O)c([C@@H]2O[C@H](CO)C[C@H](O)[C@H]2O)c(=O)o1)CO (some centres unmarked) [Fusapyrone]	13.39	0.966	13.21	0.841			
CC(=O)OCc1c(O)c2c(c3c1OC(=O)c1c(C)cc(O)c(C=O)c1O3)C(O)OC2=O (centres unmarked) [Galbinic acid]	15.37	1.005	12.89	0.836			
C[C@@H]1C=C2C(=O)O[C@@H]3CC[C@H](C1)[C@]23O [Galiellalactone]	19.07	1.078	5.71	0.724			
CCCN1C[C@H](C)[C@@H](O)[C@](C)(O)[C@@H](CC)OC(=O)[C@H](C)[C@@H](O[C@H]2C[C@@](C)(OC)[C@@H](O)[C@H](C)O2)[C@H](C)[C@@H](O[C@@H]2O[C@H](C)C[C@H](N(C)C)[C@H]2O)[C@](C)(O)C[C@H]1C [Gamithromycin]	5.73	0.815	7.95	0.759			
C=C(NC(=O)C(=C)NC(=O)c1ccc2c(n1)-c1coc(n1)C(=C)NC(=O)C(=C)NC(=O)c1nc(oc1C)C(=C)NC(=O)C(C(C)(C)O)NC(=O)C(=C)NC(=O)c1coc(n1)/C(=C/C)NC(=O)[C@H]([C@@H](C)O)NC(=O)c1csc-2n1)C(N)=O (some centres unmarked) [Geninthiocin]	14.25	0.983	12.51	0.83			
CCc1c(O)c(C)c(C(C)CC)oc1=O (centres unmarked) [Germicidin A]	11.41	0.927	12.19	0.825			
COc1cc2c(oc(=O)c3cc(C)cc(OC)c32)c2c(C3OC(C(C)O)C(O)C3O)ccc(O)c12 (centres unmarked) [Gilvocarcin M]	10.14	0.902	13.92	0.852			
COC1=C(OC)C(=O)C(C)C(C)C1=O (centres unmarked) [Gliorosein]	13.24	0.963	15.33	0.874			
COC1=C(OC)C(O)C(C)C(C)C1=O (centres unmarked) [Glioroseinol]	11.16	0.922	1.92	0.665			
COc1cc(O)c2c(=O)oc3c(O)c(OC)cc(C)c3c2c1 [Graphislactone A]	13.44	0.967	16.48	0.892			
COC(=O)C1(O)CC2OC1(C)n1c3ccccc3c3c4c(c5c6ccccc6n2c5c31)C(=O)NC4 (centres unmarked) [K252A, reference compound]							T. vaginalis HTS result in words (384-well, 25 μL, 10,000 cells/mL, 48 h, biological duplicates, hit = >50% inhibition): active analogues
CC1=C[C@H]2C(=O)O[C@H]3C[C@@H](C/C=C(\C)C[C@@H](C)/C=C/C=C4\CO[C@H](/C1=N/O)[C@@]42O)O[C@@]1(CC[C@H](C)[C@@H](C)O1)C3 [Milbemycin A3 oxime]					12.78	11.35	
CC1=C[C@H]2C(=O)O[C@H]3C[C@@H](C/C=C(\C)C[C@@H](C)/C=C/C=C4\CO[C@H]([C@@H]1O)[C@@]42O)O[C@@]1(CC[C@H](C)[C@@H](C)O1)C3 [Milbemycin A3]					11.05	8.85	
CCC1OC2(CCC1C)CC1CC(CC=C(C)CC(C)C=CC=C3COC4C(=NO)C(C)=CC(C(=O)O1)C34O)O2 (centres unmarked) [Milbemycin A4 oxime]					13.39	13.53	
CCC1OC2(CCC1C)CC1CC(CC=C(C)CC(C)C=CC=C3COC4C(O)C(C)=CC(C(=O)O1)C34O)O2 (centres unmarked) [Milbemycin A4]					12.17	12.96	
C/C1=C\C(C)C(O)/C(C)=C/C(O[C@H]2O[C@H](CO)[C@@H](O)[C@H](O)[C@@H]2O)C(O)C(C)C(O)CC(O)/C=C\C(C)C(O)C(C)CCC(O)CC(O)C(C)C(O)C(C)C(O)CC(O)CC(O)C(C)C(C(C)CCCCCCN)OC(=O)CCCCCC(O)C(C)C(O)CC/C=C/C(C)C1O (some centres unmarked) [Monazomycin]					9.53	13.73	

Compound	T.vaginalis_%inb_Rep1 [1] [%]	T.vaginalis_Absorbance_Rep1 [2]	T.vaginalis_%inb_Rep2 [3] [%]	T.vaginalis_Absorbance_Rep2 [2]	T.vaginalis_%inb_Rep1 [4] [%]	T.vaginalis_%inb_Rep2 [5] [%]	also measured
CC(=O)c1c(O)cc(O)cc1O [Monoacetylphloroglucinol]					4.36	14.18	
COC(=O)c1cc(O)cc(OC)c1C(=O)c1c(O)cc(C)cc1OC [Monomethylsulochrin]					8.42	11.03	
CC1(C)CC[C@]2(C)CC[C@]3(C)C4=CC[C@H]5C(C)(C)[C@@H](O)CC[C@]5(C)[C@H]4CC[C@@]3(C)[C@@H]2C1 [Multiflorenol]					10.55	11.42	
C=C[C@]1(C)C[C@@H](O)[C@]2(C)[C@H](C)CC[C@]3(CCC(=O)[C@H]32)[C@@H](C)[C@@H]1O [Mutilin]					12.02	13.21	
CC[C@H](C)[C@@H]1OC(=O)C(C)(C)[C@@H](O)[C@@H](Cc2ccccc2)OC(=O)[C@H](C(C)C)OC(=O)[C@@H](NC(=O)c2cccc(NC=O)c2O)[C@H](C)OC1=O [Neoantimycin]					13.59	11.67	
C/C=C(\C)c1c(Cl)c(OC)c(C)c2c1Oc1c(Cl)c(O)c(Cl)c(C)c1C(=O)O2 [Nidulin]					13.95	15.46	
CC1=C[C@H]2O[C@@H]3[C@H](O)[C@@H](O)[C@](C)([C@@]2(CO)[C@H](O)C1=O)[C@]31CO1 [Nivalenol]							T.vaginalis_%inb_Rep1: 9.96%; T.vaginalis_%inb_Rep2: 14.26%
Cc1cc(=O)n2c3c(c4c(cc13)c(CO)cc(=O)n4C)OC2 [Nybomycin]					11.05	10.26	
C[C@@H]1[C@H](O)[C@@H](C)/C=C/C=C/CC/C=C/C=C/C=C/C=C/[C@H](O[C@@H]2O[C@H](C)[C@@H](O)[C@H](N)[C@@H]2O)C[C@@H]2O[C@](O)(C[C@@H](O)[C@H](O)CC[C@@H](O)C[C@@H](O)C[C@@H](O)CC(=O)O[C@H]1C)C[C@H](O)[C@H]2C(=O)O [Nystatin A1]					11.66	11.87	
CCCCCCCCCCCC(O)CC(=O)N[C@@H](CC(C)C)C(=O)N[C@H](CCC(=O)O)C(=O)N[C@H]1C(=O)N[C@H](C(C)C)C(=O)N[C@@H](CC(C)C)C(=O)N[C@H](CO)C(=O)N[C@@H](CC(C)C)C(=O)N[C@@H](CC(C)C)C(=O)N[C@H](CO)C(=O)N[C@@H](C(C)C)C(=O)O[C@@H]1C (some centres unmarked) [Orfamide B] (X1-L[dE][d(aThr)][dV]L[dS]LL[dS]V; ester 3-C)					16.23	12.19	
Cc1ccc2c(c1O)C(=O)c1c(cc(O)c(C(=O)O)c1C)[C@]2(C)OO[C@@]1(C)c2cc(O)c(C(=O)O)c(C)c2C(=O)c2c1ccc(C)c2O [Oxanthromicin, (+)]					15.31	5.45	
COc1cc(O)c2c(c1)/C=C/CC(O)C(O)C(=O)/C=C/CC(C)OC2=O (centres unmarked) [Oxozeaenol, (5E)-7-]					8.42	13.66	
NC(=O)c1cccc2nc3ccccc3nc12 [Oxychloroaphine]					11.41	13.92	
COCC(=O)N[C@@H](C(=O)N1NCCC[C@H]1C(=O)N[C@@H](Cc1ccccc1)[C@@H](O)[C@H](C)C(=O)N[C@H]1CCN(C(N)=O)C1=O)[C@H](O)C(C)C [Padanamide A]					15.72	10.52	
CCC/C=C/C=C/[C@@H]1C[C@@H](O)[C@@H](O)C(=O)[C@H]1CO [Palitantin]					13.59	14.56	
COc1ccc([C@@]2(O)c3c(ccc(/C=C/[C@]4(C)CCC(C)(C)CO4)c3O)NC(=O)[C@@H]2OC)cc1 [Penigequinolone A]					16.23	11.87	
CCCC[C@H](O)[C@@H]1CC(OC)=CC(=O)O1 [Pestalotin]					11.05	11.16	
COc1c(OC)c(-c2c[nH]c3ccc(O)cc23)c(OC)c(OC)c1-c1c[nH]c2ccccc12 [Petromurin C]					7.91	12.64	
C[C@@H](O)CCCCCCCCCCCCCc1cc(O)cc(O)c1C(=O)O [Phanerosporic acid]					18.46	9.81	
C/C=C\C=C\[C@@H]1O[C@](O)([C@H](CO[C@H]2C[C@@H](OC)[C@@H](O[C@@H]3C[C@@H](OC)[C@@H](O[C@H]4C[C@H](OC)[C@H](O)[C@H](C)O4)[C@H](C)O3)[C@@H](C)O2)C(=O)NC/C=C/C=C(\C)[C@@H](OC)[C@H](C)[C@H]2C[C@H](O)[C@H](/C=C/C=C/C=C/C(=O)O)O2)[C@H](OC(=O)Cc2ccccc2)[C@H](O)C1(C)C [Phenelfamycin E]					11.16	10.07	
